{"source": "paper PMC8333425", "about": "“Discovery of a dual Ras and ARF6 inhibitor from a GPCR endocytosis screen” (Nature Communications, 2021)", "key": {"[1]": {"test_system": "ERK1/2 activation by B2R", "assay": "Western blot of B2R-mediated ERK1/2 phosphorylation", "assay_type": "cell-based, human", "details": "for p-ERK1/2 over ERK1/2, normalized to basal (0 min), B2R: Comp 21 50 μM, individual experiments", "protocol": "HEK293SL cells (10^5 cells per well) were seeded in a poly-L-lysine-coated six-well plate and transiently transfected with 3 μg Flag-AT1R, HA-B2R or HA-β2AR and/or 500 ng Flag-MEK1-WT, Flag-MEK1-DD, Flag-BRAF-WT, Flag-BRAF-V600E, Flag-K-Ras-WT, Flag-K-Ras-G12V, HA-ARF6-WT, or HA-ARF6-T27N. Gαq/11 KO and βarr1/2 KO cells were seeded onto 100 mm dishes at a density of 10^6 cells per dish. Next day, cells were transfected with 3 μg AT1R alone or along with 500 ng of β-arrestin2 using PEI. After 18 h of transfection, cells were detached and re-seeded onto poly-L-lysine coated 12-well plates (~1.5–2 × 10^5cells/well) for subsequent experiments. Forty-eight hours post transfection, in a 37 °C water bath, cells were serum-starved for 30 min, pretreated with DMSO (0.1%) or compound 21/Rasarfin (50 µM or at indicated concentrations) for 30 min, then stimulated or not with the indicated ligand [AngII (1 µM), BK (1 µM), Iso (10 µM) or EGF (100 ng/ml)] at indicated times. Cells were put on ice, washed with PBS and solubilized in 2x laemmli buffer (250 mM Tris–HCl pH 6.8, 2% SDS (w/v), 10% glycerol (v/v), 0.01% bromophenol blue (w/v) and 5% β-mercaptoethanol (v/v)) by heating at 65 °C for 15 min. Lysates were resolved on 10 or 14% SDS-PAGE, transferred to nitrocellulose membranes and immunoblotted for p-ERK1/2, ERK1/2, p-Akt, Akt, HA, Myc, β-actin or FLAG. ImageLab 5.2 software was used to quantify the digital blots as fold of the phosphorylated protein over total protein, which were then normalized as indicated in the figure legends. Uncropped immunoblots are provided in the Source Data file."}, "[2]": {"target": "T1, RhoA (Homo sapiens, UniProt P61586)", "T1 construct": "endogenous in cells; host or cells: HEK293SL", "assay": "GST-Rhotekin-RBD pull-down of AT1R-mediated RhoA activation", "assay_type": "cell-based", "details": "for Rho-GTP/Rho: GST-Rhotekin-RBD, listed as Comp 21", "protocol": "Activation of ARF1, ARF6, Ras, and Rho were assessed by using GST pull-down assays. HEK293SL cells were transiently transfected with 3 µg AT1R-flag only (Ras and Rho) or along with 500 ng HA-ARF6 (ARF6) or HA-ARF1 (ARF1). Forty-eight hours later, the HEK293 or MDA-MB-231 cells were serum-starved for 4 h with DMEM containing 20 mM HEPES then pretreated with DMSO or Rasarfin (50 µM) for 30 min. Cells were then stimulated with 1 µM AngII or 100 ng/ml EGF for 0 and 2 min. Cells were then washed once with ice-cold PBS and lysed for 30 min at 4 °C in 300 µl of lysis buffer (pH 7.5, 50 mM Tris-HCl, 140 mM NaCl, 5 mM MgCl2, 10% glycerol (v/v), 1% Nonidet P-40 (v/v), 1 mM dithiothreitol) supplemented with protease inhibitors (1 mM phenylmethyl-sulfonyl fluoride (PMSF), 10 µg/ml leupeptin, 5 µg/ml aprotinin, 1 µg/ml pepstatin A) and phosphatase inhibitors (20 mM NaF, 0.025 mM pervanadate). The samples were cleared by centrifugation and 30 µl (cell lysates) was kept for assessing total protein contents. The remaining was transferred to fresh tubes with 20 µg of either GST, GST-GGA3-PBD, GST-Raf1-RBD or GST-Rhotekin-RBD coupled to glutathione resin and rotated for 1–2 h at 4 °C. Beads were washed twice with lysis buffer and proteins were eluted in 25 μl 2x laemmli buffer by heating at 65 °C for 15 min. Proteins were resolved on 14% SDS-PAGE, transferred to nitrocellulose membranes, and immunoblotted for HA, Ras, RhoA, H-Ras, or ARF6. ImageLab 5.2 software was used to quantify the digital blots as fold of the amount of pulled down protein over total protein. Uncropped coomassie gels and immunoblots are provided in the Source Data file."}, "[3]": {"target": "T2, K-Ras-Y32A (Homo sapiens, UniProt P01116, Y32A)", "T2 construct": "GST (N); FLAG (N); host or cells: E. coli BL21", "T2 sequence (P01116 1-188 isoform P01116-2 Y32A)": "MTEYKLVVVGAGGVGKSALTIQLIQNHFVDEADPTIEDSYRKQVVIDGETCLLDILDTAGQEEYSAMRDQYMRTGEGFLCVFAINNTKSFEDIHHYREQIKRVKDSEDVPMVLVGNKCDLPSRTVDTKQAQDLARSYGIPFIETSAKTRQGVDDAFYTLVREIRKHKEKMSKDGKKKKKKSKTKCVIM", "assay": "In vitro mant-GTP exchange assay, purified K-Ras-Y32A with SOS1", "assay_type": "biochemical", "details": "50 μM", "protocol": "Ras activity was assessed in a 384-well black bottom plate using the mant-GTP exchange factor assay that measures the uptake of the fluorescent nucleotide analog N-methylanthraniloyl-GTP (mant-GTP) into GTPases. For Ras activation, 2X exchange buffer, 1.66 μg of purified pGEX-6P-1-H-Ras or pGEX-6P-1-K-Ras-WT or pGEX-6P-1-K-Ras-Y32A were added per well in presence of DMSO, different concentrations of Rasarfin (as indicated) or 50 µM of compounds 21.4, 21.7, or 21.8. Using the Infinite 200 Pro plate reader (Tecan) with filters set at 360 nm and 440 nm for detecting the excitation and emissions, respectively, and temperature set at 20 °C, 5 readings were recorded every 5 s before the addition of either H2O, 40 mM EDTA or 0.66 μg purified SOS1. The fluorescence of mant-GTP uptake was measured every 30 sec for 30 min and quantified as the delta relative fluorescence units (RFU), which was calculated as the RFU post-addition minus the 5 averaged RFU pre-addition, per condition."}}, "note": "Values joined by “and” are separate entries in the source; they are usually repeats but may differ in a detail not shown here. Equal values may be shown once.", "data": [{"smiles": "CC(C)C(=O)N1CCN(c2ccc(NC(=O)c3cc4ccccc4o3)cc2Cl)CC1", "note": "[Compound 21]", "values": [{"measurement": "MAPK response promoted by B2R", "setting": "[1]; 50 μM", "result": "blocked MAPK responses"}, {"measurement": "p-ERK1/2 over ERK1/2, normalized to basal (0 min), B2R", "setting": "[1]; time 0 min", "result": "1 (3×) and 1.039"}, {"measurement": "p-ERK1/2 over ERK1/2, normalized to basal (0 min), B2R", "setting": "[1]; time 2 min", "result": "1.954 and 3.081 and 1.486 and 1.1152"}, {"measurement": "p-ERK1/2 over ERK1/2, normalized to basal (0 min), B2R", "setting": "[1]; time 5 min", "result": "0.9797 and 0.9619 and 1.157 and 1.051"}, {"measurement": "pull-down of Rho-GTP by GST-Rhotekin-RBD from cells stimulated with AT1R", "setting": "[2]; 50 μM", "result": "nor did it prevent the pull-down of Rho-GTP"}, {"measurement": "Rho-GTP/Rho", "setting": "[2]; AngII", "result": "0.2491 and 0.2385 and 0.2151 and 0.2027"}, {"measurement": "Rho-GTP/Rho", "setting": "[2]; Ctrl", "result": "0.1261 and 0.1465 and 0.07786 and 0.1043"}, {"measurement": "SOS-mediated mant-GTP binding onto purified K-Ras-Y32A", "setting": "[3]", "result": "but not on K-Ras-Y32A"}]}]}
